The text below walks through data of US9603860B2, “Pharmaceutical compositions comprising active drugs, contraceptive kits comprising active drugs, and methods of administering the same” (LABORATORIOS LEON FARMA SA, priority 2010, dated 2017).

One series deals with ovulation. Put plainly: Contraceptive efficiency trial, 24/4 regimen (ovulation inhibition, Example 5, Part 3). It counts as in vivo, human. The method, then: The study was an open-label monocentric trial. […] Excluded were subjects with a (suspected) pregnancy, active or past thromboembolic disorder, present or past severe hepatic disease, carcinoma of the endometrium or other known or suspected estrogen-dependent neoplasia, undiagnosed vaginal bleeding, use of liver enzyme-inducing drugs and other drugs.
The subjects received daily treatment with tablets containing about 4 mg DRSP with a 24/4 regimen during two treatment cycles. The subjects started treatment on the 1st day of the cycle (i.e., the first day of onset of vaginal bleeding) following the screening visit. […]
Blood sampling for hormonal determination (progesterone, 17-beta-estradiol, FSH and LH) was performed every 3 days from day 1 to day 84 and assessments of weight, blood pressure and heart rate were performed at each visit. Serum progesterone, 17-beta-estradiol, FSH and LH concentrations were measured with validated commercial in vitro diagnostic kits (V1DAS, ELFA Biomerieux). […]
The occurrence of ovulation during treatment was determined on the basis of serum progesterone concentration, using the criteria of Landgren et al. Thus, an ovulation was judged to have occurred in case of progesterone concentrations >5.04 ng/ml-sustained for at least 2 consecutive progesterone samples.

Series [1] is described as follows: Particle size distribution by laser diffraction in wet dispersion. It is filed as physicochemical. The following applies: dispersant water. The method, then: The analysis of the particle size distribution of each batch was performed by laser diffraction method in wet dispersion (Helos sensor, Sympatec with the wet disperser Quixel). The dispersant used was water. The full particle dispersion was ensured by ultrasonication.

A short description of series [2]: Specific area by BET method. It counts as physicochemical. As to the method: The specific area was determined by the BET method.

`C[C@]12CCC(=O)C=C1[C@@H]1C[C@@H]1[C@H]1[C@@H]3[C@@H]4C[C@@H]4[C@@]4(CCC(=O)O4)[C@@]3(C)CC[C@@H]12` [DRSP, 6b,7b:15b,16b-Dimethylen-3-oxo-17a-pregn-4-ene-21,17-carbolactone]: the “ovulation during the 2 treatment cycles” value in the series with ovulation (24/4 regimen, ovulation = progesterone >5.04 ng/ml in 2 consecutive samples) was “no ovulation occurred”. Moreover, in the series on ovulation (upon cessation of treatment), the “women with progesterone above 5.04 ng/mL (return of ovulation) in 28-day follow-up cycle” value is on record as 17 out of 20.
Regarding `C[C@]12CCC(=O)C=C1[C@@H]1C[C@@H]1[C@H]1[C@@H]3[C@@H]4C[C@@H]4[C@@]4(CCC(=O)O4)[C@@]3(C)CC[C@@H]12` [compound 080053, Drospirenone], in series [1], the d10 amounted to 7.2 μm, the d50 is 19.8 μm, the d90 amounted to 34.2 μm and the d99 was 44.8 μm. This compound displayed a Specific area in series [2] of 0.63 m^2/g.
Taken in the same sequence, the figures for `C[C@]12CCC(=O)C=C1[C@@H]1C[C@@H]1[C@H]1[C@@H]3[C@@H]4C[C@@H]4[C@@]4(CCC(=O)O4)[C@@]3(C)CC[C@@H]12` [compound 080169, Drospirenone] were 2.9 μm, 24.5 μm, 37.1 μm, 48.9 μm and 0.45 m^2/g.
Taken in the same sequence, the figures for `C[C@]12CCC(=O)C=C1[C@@H]1C[C@@H]1[C@H]1[C@@H]3[C@@H]4C[C@@H]4[C@@]4(CCC(=O)O4)[C@@]3(C)CC[C@@H]12` [compound 080204, Drospirenone] were 4.4 μm, 13.1 μm, 24.8 μm, 34.5 μm and 0.83 m^2/g.
Taken in the same sequence, the figures for `C[C@]12CCC(=O)C=C1[C@@H]1C[C@@H]1[C@H]1[C@@H]3[C@@H]4C[C@@H]4[C@@]4(CCC(=O)O4)[C@@]3(C)CC[C@@H]12` [compound 080257, Drospirenone] were 5.3 μm, 12.6 μm, 23.4 μm, 35.3 μm and 0.77 m^2/g.
Regarding `C[C@]12CCC(=O)C=C1[C@@H]1C[C@@H]1[C@H]1[C@@H]3[C@@H]4C[C@@H]4[C@@]4(CCC(=O)O4)[C@@]3(C)CC[C@@H]12` [PR100003, Drospirenone], in series [1], the d10 is on record as 5.9 μm, the d50 is recorded as 22.4 μm, the d90 is 37.4 μm and the d99 amounted to 56.1 μm. Besides, in series [2], the Specific area worked out at 0.26 m^2/g.
In turn, `C[C@]12CCC(=O)C=C1[C@@H]1C[C@@H]1[C@H]1[C@@H]3[C@@H]4C[C@@H]4[C@@]4(CCC(=O)O4)[C@@]3(C)CC[C@@H]12` [PR100311, Drospirenone] yielded a Specific area in series [2] of 0.66 m^2/g.
